{"source": "paper PMC4503694", "about": "“The Human Autoantibody Response to Apolipoprotein A-I Is Focused on the C-Terminal Helix: A New Rationale for Diagnosis and Treatment of Cardiovascular Disease?” (PLoS ONE, 2015)", "key": {"RAW cells": {"system": "RAW cells", "assay": "Anti-ApoA-I IgG-induced TNF-α release in RAW mouse macrophage cell line", "format": "cell-based", "conditions": "anti-ApoA-I IgG 100 μg/ml preincubated 2 h with peptide 100 to 0.06 μg/ml; 24 h stimulation; ELISA; n = 3 (Fig 7)", "procedure": "Raw cells were seeded in 96-well plates at 2 × 10^5 cells/well in DMEM culture medium (10% heat-inactivated FCS, 50 μg/ml streptomycin, 50 U/ml penicillin) for 24 h. Anti-Apo-A1 IgG (100 μg/ml) were incubated with peptides across a concentration range from 100 μg/ml to 0.06 μg/ml for 2 h at room temperature prior addition to cells. After 24 h stimulation, mouse TNF-α was quantified in the cell supernatants by ELISA according to manufacturer’s instructions (R&D system, MN).\nFig 7 Comparing the inhibitory potency of Peptide F and F3L1 on anti-ApoA-I IgG-induced TNF-α. Anti-ApoA-I IgG was incubated with the indicated peptide concentrations (preincubation 2 h at room temperature) prior to addition to cultured RAW cells. Levels of proinflammatory cytokines (TNF-α) were determined after 24 h culture. Mean levels (n = 3) are shown with error bars indicating the range."}, "[1]": {"system": "anti-ApoA-I antibodies in plasma samples from three different patients", "assay": "Competition ELISA with plasma of three individual anti-ApoA-I-positive patients", "format": "binding, human", "conditions": "preincubated 2 h at room temperature with peptide, n = 3 (Fig 3)", "procedure": "We next performed ELISA assays using plasma samples from three different anti-ApoA-I autoantibody-positive patients from the cohort pre-incubated with Peptide F, a scrambled version of Peptide F (Table 1), or the stapled peptide F3L1 prior to addition to wells coated with ApoA-I (Fig 3).\nPlasma samples were preincubated (2 h, room temperature) with peptides at the indicated concentrations prior to addition to assay wells. Percent maximal ELISA signals were calculated as 100 × ([signal in well]-[mean background signal (uncoated well)])/ ([mean maximal signal (no peptide)]-[mean background signal]). Results are expressed as mean ± SD (n = 3)."}, "[2]": {"system": "human monocyte-derived macrophages", "assay": "Anti-ApoA-I IgG-mediated IL-6 and TNF-α release from human monocyte-derived macrophages", "format": "cell-based", "procedure": "Human monocytes were isolated from buffy coats from healthy donors at the Geneva University Hospitals Blood Transfusion Center and differentiated into macrophages by 24 h incubation with IFN-γ (500 U/ml) in complete RPMI-1640 culture medium (10% heat-inactivated FCS, 50 μg/ml streptomycin, 50 U/ml penicillin, 2 mM L-glutamine), as previously described. Assays of anti-ApoA-I IgG-mediated release of IL-6 and TNF-α from human monocyte-derived macrophages was carried out as described previously using a previously determined optimal concentration of polyclonal goat anti-ApoA-I IgG (40 μg/ml). Endotoxin contamination in the assay was excluded using the limulus amebocyte lysate Endochrome assay. Where indicated, anti-ApoA-I IgG was pre-incubated with peptide […] (1 mg/mL) for 2 h at room temperature prior addition to the cells. Each experiment was performed on cells from […] different healthy blood donors. […] We next used a Luminex assay to measure the capacity of peptide […] to inhibit endotoxin-free anti-ApoA-I IgG-mediated proinflammatory cytokine release in human monocyte-derived macrophages (Fig 5a and 5b). As expected from previously published work, anti-ApoA-I IgG elicited a significant increase in production of both in IL-6 and TNF-α when compared to control IgG (Ctl IgG; p<0.0001 for both cytokines). […] We were unable to measure the inhibitory activity of intact purified and delipidated ApoA-I in this assay because traces of endotoxin elicit significant levels of background cytokine secretion (NV and SP, unpublished observations).  Fig 5 Peptide […] inhibits anti-ApoA-I IgG-mediated release of proinflammatory cytokines from cultured human monocyte-derived macrophages. Release of proinflammatory cytokines TNF-α (a) IL-6 (b) from human monocyte-derived macrophages induced by endotoxin-free goat polyclonal anti-ApoA-I IgG was determined with or without preincubation (2 h at room temperature) of the anti-ApoA-I IgG with peptide […] (1 mg/mL) and the corresponding scrambled peptide (Scr Pept). […] Anti-ApoA-I IgG was incubated with the indicated […] concentrations (preincubation 2 h at room temperature) prior to addition to cultured human monocyte-derived macrophages. Levels of proinflammatory cytokines were determined after 24 h culture. Experiments were repeated using cells from three different healthy donors, with results expressed as median, interquartile range (IQR) and range."}, "[3]": {"assay": "CD spectroscopy (alpha-helical content)", "format": "physicochemical", "conditions": "100 μM peptide in water with 1.25% trifluoroethanol, 20°C (Fig 2)", "procedure": "Experiments were carried out in 0.1 cm quartz cell using a Jasco J-710 spectrometer with 100 μM peptide solutions (1.25% trifluoroethanol in water) at 20°C.\nFig 2 CD spectroscopy of peptide F3L1 indicates increased alpha-helical content. CD spectra of Peptide F and F3L1 were measured at 100μM concentration in water containing 1.25% trifluoroethanol."}, "[4]": {"conditions": "anti-ApoA-I IgG 40 μg/ml preincubated 2 h at room temperature with peptide 1 mg/mL (342 μM), nine donors, Luminex"}}, "data": [{"substance": "Ac-GLLPVLESFKVSFLSALEEYTKKLNT-NH2 (also: sidechain bridge or staple (positions not given here)) [Peptide F3L1, stapled version of Peptide F with a Glu-Lys lactam bridge]", "values": [{"measurement": "inhibitory potency on anti-ApoA-I IgG-induced TNF-α", "setting": "RAW cells", "result": "clearly a more potent inhibitor than Peptide F"}, {"measurement": "inhibition of binding of anti-ApoA-I IgG to immobilized ApoA-I", "setting": "[1]", "result": "consistently improved binding inhibition with respect to Peptide F"}, {"measurement": "median IL-6 production", "setting": "[2]; [4]", "result": 19.2, "unit": "pg/mL"}, {"measurement": "median TNF-α production", "setting": "[2]; [4]", "result": 48.4, "unit": "pg/mL"}, {"measurement": "inhibition of anti-ApoA-I IgG-induced TNF-α and IL-6 release", "setting": "[2]; peptide preincubated with anti-ApoA-I IgG 2 h at room temperature, highest concentration 1 mg/mL (Fig 5, 6)", "result": "dose-dependent manner"}, {"measurement": "cytokine production by peptide compared to control IgG", "setting": "[2]; peptide without anti-ApoA-I IgG, trend for TNF-α, p = 0.05", "result": "devoid of significant biological activity"}, {"measurement": "alpha-helical content by CD", "setting": "[3]", "result": "increased alpha-helical content compared to the parent molecule"}]}]}
